Assay results reported in ChEMBL document CHEMBL5728921, “Pyridylpyridone compounds” (2022).

Biological target: Phosphatidylinositol 3-kinase catalytic subunit type 3 (Homo sapiens, UniProt Q8NEB9)
Test: Biochemical Assay: Dilution series of compounds of the invention were prepared in DMSO at 100 times the final assay concentration (n1=n0/3 in 10 points). The compounds were further diluted to 4 times the assay concentration in assay buffer (Life technologies buffer Q, PV5125, diluted 5 times supplemented with 2 mM DTT and 2 mM MnCl2). 2.5 μl of the diluted compounds were added to a 384 well assay plate followed by 2.5 μl of 16.5 nM Vps34 enzyme (Life technologies, PV5126). Enzyme and compounds were pre-incubated at rt for 15 min. Then 5 μl of substrate mix containing 20 μM ATP (Life technologies, PV3227) and 200 μM PI:PS substrate (Life technologies, PV5122) in assay buffer was added to the wells containing compound and enzyme. Mixing was performed by pipetting several times. The reaction was incubated at room temperature for 1 h. Then 5 μl stop-detection mix, prepared as described in the Adapta kinase assay kit instructions (Life technologies, PV5099) containing Adapta Eu-anti-ADP antibody (2.3 nM), Alexa Fluor 647 ADP tracer (9 nM) and EDTA (30 mM) in TR-FRET buffer, was added to quench the reaction. Mixing was performed by pipetting several times. The assay plate was then incubated at room temperature for 30 min and read with Artemis micro plate reader. Percent inhibition of the compounds as compared to DMSO treated control samples was calculated.

Phosphatidylinositol 3-kinase catalytic subunit type 3, sequence (Q8NEB9 whole entry): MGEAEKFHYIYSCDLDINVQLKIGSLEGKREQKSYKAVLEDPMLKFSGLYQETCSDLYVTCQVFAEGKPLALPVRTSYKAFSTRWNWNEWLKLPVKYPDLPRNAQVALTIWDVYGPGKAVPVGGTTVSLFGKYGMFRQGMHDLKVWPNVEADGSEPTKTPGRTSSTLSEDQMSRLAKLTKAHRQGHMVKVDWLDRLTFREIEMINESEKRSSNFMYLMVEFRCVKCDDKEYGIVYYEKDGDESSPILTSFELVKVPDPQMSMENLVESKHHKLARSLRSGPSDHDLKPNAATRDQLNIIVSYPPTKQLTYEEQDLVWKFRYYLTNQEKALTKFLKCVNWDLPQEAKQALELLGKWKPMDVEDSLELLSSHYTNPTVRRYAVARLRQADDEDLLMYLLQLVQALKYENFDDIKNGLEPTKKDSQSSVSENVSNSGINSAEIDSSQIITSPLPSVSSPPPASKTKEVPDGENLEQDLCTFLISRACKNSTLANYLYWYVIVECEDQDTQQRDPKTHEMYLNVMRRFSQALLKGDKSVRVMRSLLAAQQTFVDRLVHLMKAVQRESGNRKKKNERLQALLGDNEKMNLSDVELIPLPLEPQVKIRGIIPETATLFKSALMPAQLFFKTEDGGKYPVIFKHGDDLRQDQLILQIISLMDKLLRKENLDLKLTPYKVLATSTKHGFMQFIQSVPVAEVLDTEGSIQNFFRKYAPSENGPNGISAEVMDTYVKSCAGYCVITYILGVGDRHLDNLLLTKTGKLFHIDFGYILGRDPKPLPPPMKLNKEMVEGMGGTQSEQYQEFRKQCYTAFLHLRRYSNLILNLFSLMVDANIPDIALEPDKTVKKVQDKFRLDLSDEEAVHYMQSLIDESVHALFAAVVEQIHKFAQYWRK

- IC50: < 5 nM
SMILES: CC(=O)Nc1cc(-c2cc(-c3ccccc3Cl)[nH]c(=O)c2)ccn1
